Laboratory results reported in paper PMC5967867, “An NMDAR positive and negative allosteric modulator series share a binding site and are interconverted by methyl groups” (eLife, 2018).

Each molecule was assayed on NMDARs (assay: Whole-cell recordings of modulation at +40 mV and -60 mV (voltage dependence)). Conditions: 10 µM test compound.
Type: cell-based, rat
Experimental: Figure 4. The association and dissociation time course of EU1794-2, EU1794-4 and EU1794-27 differ at GluN1/GluN2A and GluN1/GluN2D. (A) Representative whole-cell current recordings of GluN1/GluN2D NMDARs exemplifying the modulation time course of EU1794-2, EU1794-4 and EU1794-27 (1, 3, 10 µM). […] Insets show the steady state modulation extent from the HEK cell experiments fit by the Hill equation (Hill slope fixed to 1). (B) Analysis of the time course for the onset of PAM and NAM action as a function of concentrations for EU1794-2 (left), EU1794-4 (left) and EU1794-27 (right) used to determine the association rate kON (black circles) and dissociation rate kOFF (grey squares), from which we can calculate Kd for each modulator. Data are from at least 3 cells for each concentration of modulator. For EU1794-27 the association and dissociation rate linear component was also found to be concentration dependent (mon = −0.98 pA/(ms*µM), moff = 0.62 pA/(ms*µM)). (C,D) Similar set of panels as A,B but examining EU1794-2, EU1794-4 and EU1794-27 modulation of GluN1/GluN2A. In example recordings, all modulator concentrations are 10 µM. Data are from at least 3 cells for each concentration of modulator. For EU1794-27 time-course was fitted with the sum of an exponential and linear function, and both the time constant and slope were concentration dependent (mon = −0.33 pA/(s*µM), moff = 0.16 pA/(s*µM)). Figure 4—figure supplement 1. The actions of EU1794 modulators are voltage-independent and are influenced by the desensitization level. (A–C) A representative current response of EU1794-2 (A, the ratio of the % modulation by EU1794-2 at +40 mV and −60 mV was 1.1 ± 0.27, n = 3), EU1794-4 (B, the ratio of modulation at +40 mV and −60 mV was 0.88 ± 0.06, n = 6) and EU1794-27 (C, the ratio of modulation at +40 mV and −60 mV was 0.99 ± 0.15, n = 3) modulation with the Vm held at +40 mV and −60 mV; all responses shown were using 10 µM of test compound. […]
`CCOC(=O)c1c(NC(=O)CC2SC(=N)NC2=O)sc2c1CCC(C)C2` (stereo not drawn) [EU1794-2, ethyl 2-(2-(2-imino-4-oxothiazolidin-5-yl)acetamido)-6-methyl-4,5,6,7-tetrahydrobenzo[b]thiophene-3-carboxylate] was tested, and the “ratio of the % modulation at +40 mV and −60 mV” value (from here on “ratio of the % modulation”) was 1.1 ± 0.27.
In the case of `CCOC(=O)c1c(NC(=O)CC2SC(=N)NC2=O)sc2c1CCCC2` (stereo not drawn) [EU1794-4, ethyl 2-(2-(2-imino-4-oxothiazolidin-5-yl)acetamido)-4,5,6,7-tetrahydrobenzo[b]thiophene-3-carboxylate], the “ratio of the % modulation” value is reported as 0.88 ± 0.06.
In the case of `CC(C)(C)OC(=O)c1c(NC(=O)CC2SC(=N)NC2=O)sc2c1CCCC2` (stereo not drawn) [EU1794-27, tert-butyl 2-(2-(2-imino-4-oxothiazolidin-5-yl)acetamido)-4,5,6,7-tetrahydrobenzo[b]thiophene-3-carboxylate], the “ratio of the % modulation” value is reported as 0.99 ± 0.15.
